# From patent publication US4946864A, “Novel HMG-CoA reductase inhibitors” (Merck & Co., Inc., priority 1988, dated 1990)
# Biological target: T1, HMG-CoA reductase (Rattus norvegicus, UniProt P51639)
# T1 construct: from tissue
# T1 sequence (P51639 1-887): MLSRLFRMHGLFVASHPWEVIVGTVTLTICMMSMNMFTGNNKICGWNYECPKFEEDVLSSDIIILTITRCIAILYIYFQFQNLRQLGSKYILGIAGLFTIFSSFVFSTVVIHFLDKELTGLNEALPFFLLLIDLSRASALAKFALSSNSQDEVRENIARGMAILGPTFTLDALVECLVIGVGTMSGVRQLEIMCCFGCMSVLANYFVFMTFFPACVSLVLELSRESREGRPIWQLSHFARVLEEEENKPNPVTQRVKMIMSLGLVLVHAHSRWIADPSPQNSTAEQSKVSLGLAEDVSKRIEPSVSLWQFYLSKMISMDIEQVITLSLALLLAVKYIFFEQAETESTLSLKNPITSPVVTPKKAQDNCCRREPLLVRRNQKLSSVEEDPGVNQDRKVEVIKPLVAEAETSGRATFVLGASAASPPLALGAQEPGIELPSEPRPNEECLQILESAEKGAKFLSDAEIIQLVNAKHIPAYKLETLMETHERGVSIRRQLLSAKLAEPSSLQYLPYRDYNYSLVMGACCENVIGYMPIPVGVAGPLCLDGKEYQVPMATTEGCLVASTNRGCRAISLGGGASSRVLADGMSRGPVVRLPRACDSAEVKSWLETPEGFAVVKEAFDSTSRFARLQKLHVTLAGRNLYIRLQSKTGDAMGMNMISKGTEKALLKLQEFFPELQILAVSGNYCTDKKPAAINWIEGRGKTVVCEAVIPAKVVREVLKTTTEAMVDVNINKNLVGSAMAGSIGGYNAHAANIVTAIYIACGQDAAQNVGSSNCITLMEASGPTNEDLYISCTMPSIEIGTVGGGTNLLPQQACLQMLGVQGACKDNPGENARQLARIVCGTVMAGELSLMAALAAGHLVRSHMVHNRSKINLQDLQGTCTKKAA
# Assay: intrinsic HMG-CoA reductase inhibition, in vitro protocol of J. Med. Chem., 28, p. 347-358 (1985)
# Assay type: biochemical
# Conditions: mevastatin assigned a value of 100; IC50 of test compound compared with that of mevastatin determined simultaneously
# Method: The intrinsic HMG-CoA reductase inhibition activity of the claimed compounds is measured in the in vitro protocol published in J. Med. Chem., 28, p. 347-358 (1985). […] Tabulated below for a number of the claimed compounds are relative potencies which are representative of the intrinsic HMG-CoA reductase inhibitory activities of the claimed compounds.
row,Compound,Relative Potency
1,Cc1ccc(C)c(C(=O)O[C@H]2C[C@@H](C)C=C3C=C[C@H](C)[C@H](CC[C@@H]4C[C@@H](O)CC(=O)O4)[C@H]32)c1,67
2,"6(R)-[2-[8(S)-(2-isopropylbenzoyloxy)-2(S),6(R) -dimethyl-1,2,6,7,8,8a(R)-hexahydronaphthyl-1(S)]ethyl-4(R)-hydroxy-3,4,5,6-tetrahydro-2H-pyran-2-one",173
3,"6(R)-[2-[8(S)-(2-trifluormethyl-benzoyloxy)-2(S),6(R)-dimethyl-1,2,6,7,8,8a(R)-hexa-hydronaphthyl-1(S)]ethyl]-4(R)-hydroxy-3,4,5,6-tetrahydro-2H-pyran-2-one",87
4,"6(R)-[2-[(8(S)-(2-chlorobenzoyloxy)-2-(S),6(R)-dimethyl-1,2,6,7,8,8a(R)-hexahydronaphthyl-1-(S)]ethyl]-4(R)-hydroxy-3,4,5,6-tetahydro-2H pyran-2-one",100

# Results, then the compound that gave them:
row,Relative Potency,Compound
1,67,"6(R)-[2-[8(S)-(2-methylbenzoyloxy) -2(S),6(R) -dimethyl-1,2,6,7,8,8a(R) -hexahydronaphthyl-1(S)]ethyl]-4(R)-hydroxy -3,4,5,6-tetrahydro-2H-pyran-2-one"
2,54,"6(R)-[2-[8(S)-(2-methylthiobenzoyloxy)-2(S),6(R)-dimethyl-1,2,6,7,8,8a(R)- hexahydronaphthyl-1(S)]ethyl-4(R)-hydroxy-3,4,5,6-tetrahydro-2H-pyran-2-one"
